{"source": "patent US12304890B2", "about": "“R-type pyridyloxycarboxylic acid, salt and ester derivative thereof, and preparation method therefor, and herbicidal composition and application thereof” (Qingdao Kingagroot Chemical Compound Co., Ltd., priority 2018, dated 2025)", "type_in_all_cases": "in vivo", "key": {"Echinochloa crusgalli": {"tested_on": "Echinochloa crusgalli", "assay": "Post-emergence test experiment, Echinochloa crusgalli", "conditions": "for Echinochloa crusgalli, activity level (growth inhibition rate): 200 g a.i./ha, 3 weeks, weed resistant to ALS inhibitor and ACCe herbicides; for Activity level (growth inhibition rate), Echinochloa crusgalli: 1000 g a.i./ha, 3 weeks in greenhouse, fresh weight inhibition", "outline": "(§1)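 Greenhouse-grown plants sprayed at the 2-3 leaf stage, 2 weeks after sowing, with compound in acetone/tween-80 diluted in water plus 1.5 L/ha methyl oleate emulsifiable concentrate as synergist. Effect scored 3 weeks later as fresh weight inhibition rate.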"}, "rice": {"tested_on": "rice", "assay": "Post-emergence test experiment, rice (crop selectivity)", "conditions": "200 g a.i./ha, 3 weeks", "outline": "as §1"}, "Digitaria sanguinalis": {"tested_on": "Digitaria sanguinalis", "assay": "Post-emergence test experiment, Digitaria sanguinalis", "conditions": "for Digitaria sanguinalis, activity level (growth inhibition rate): 200 g a.i./ha, 3 weeks, weed resistant to cyhalofop-butyl; for Activity level (growth inhibition rate), Digitaria sanguinalis: 1000 g a.i./ha, 3 weeks in greenhouse, fresh weight inhibition", "outline": "as §1"}, "Monochoria vaginalis": {"tested_on": "Monochoria vaginalis", "assay": "Weed control effect evaluation in rice field", "conditions": "paddy pot, 0.5 leaf stage, 1000 g a.i./ha, 14 days; weed resistant to pyrazosulfuron-ethyl and penoxsulam", "protocol": "Rice field soil was loaded into a 1/1,000,000 ha pot. The seeds of Monochoria vaginalis were sowed and gently covered with soil, then left to stand still in greenhouse in the state of 0.5-1 cm of water storage. It was kept at 3-4 cm of water storage thereafter. The weeds were treated by dripping the WP or SC water diluents prepared according to the common preparation method of the compounds of the present invention with pipette homogeneously to achieve specified effective amount when Monochoria vaginalis reached 0.5 leaf stage.\n(§2) The fertility condition of Monochoria vaginalis 14 days and rice 21 days after the treatment of the compound of the invention with the naked eye."}, "[1]": {"tested_on": "Semen Euphorbiae Lathyridis", "assay": "Post-emergence test experiment, Semen Euphorbiae Lathyridis", "conditions": "200 g a.i./ha, 3 weeks, weed resistant to cyhalofop-butyl", "outline": "as §1"}, "rice (japonica rice)": {"tested_on": "rice (japonica rice)", "assay": "Transplanted rice safety evaluation", "conditions": "transplanted 3-leaf japonica rice, 1000 g a.i./ha, 21 days after treatment", "protocol": "In addition, the rice field soil that loaded into the 1/1,000,000 ha pot was leveled to keep water storage at 3-4 cm depth. The 3-leaf stage rice (japonica rice) was transplanted at 3 cm of transplanting depth the next day. The compound of the present invention was treated by the same way after 5 days of transplantation.\nas §2"}, "[2]": {"tested_on": "Monocotyledonous and dicotyledonous weed seeds and main crop seeds", "assay": "Post-emergence test experiment, other weeds and crops (Table 4, 1000 g a.i./ha)", "conditions": "3 weeks in greenhouse, fresh weight inhibition", "outline": "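Weed and crop seeds (wheat, corn, rice, soybean, cotton, oilseed, millet, sorghum) sown in soil pots in a greenhouse and sprayed at 2-3 leaf stage, 2 weeks after sowing. Compound in acetone/tween-80 with methyl oleate concentrate (1.5 L/ha) as synergist. Effect recorded as fresh-weight growth inhibition rate.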"}}, "data": [{"compound": "C[C@@H](Oc1nc(F)c(Cl)c(N)c1Cl)C(=O)SCc1ccccn1", "note": "[Compound 2-343]", "values": [{"measurement": "Echinochloa crusgalli, activity level (growth inhibition rate)", "setting": "Echinochloa crusgalli", "result": "5 (Level 5: the growth inhibition rate is greater than 85%)"}, {"measurement": "Activity level (growth inhibition rate), Echinochloa crusgalli", "setting": "Echinochloa crusgalli", "result": "5 (Level 5: the growth inhibition rate is greater than 85%)"}, {"measurement": "rice, activity level (growth inhibition rate)", "setting": "rice", "result": "0 (Level 0: the growth inhibition rate is less than 5%)"}, {"measurement": "Digitaria sanguinalis, activity level (growth inhibition rate)", "setting": "Digitaria sanguinalis", "result": "5 (Level 5: the growth inhibition rate is greater than 85%)"}, {"measurement": "Activity level (growth inhibition rate), Digitaria sanguinalis", "setting": "Digitaria sanguinalis", "result": "5 (Level 5: the growth inhibition rate is greater than 85%)"}, {"measurement": "Monochoria Vaginalis, activity level 0-5", "setting": "Monochoria vaginalis", "result": "5 (Level 5: the growth inhibition rate is greater than 85%)"}, {"measurement": "Semen Euphorbiae Lathyridis, activity level (growth inhibition rate)", "setting": "[1]", "result": "5 (Level 5: the growth inhibition rate is greater than 85%)"}, {"measurement": "rice, safety level 0-5", "setting": "rice (japonica rice)", "result": "0 (Level 0: the growth inhibition rate is less than 5%)"}, {"measurement": "Activity level (growth inhibition rate), Abutilon theophrasti Medic.", "setting": "[2]", "result": "5 (Level 5: the growth inhibition rate is greater than 85%)"}, {"measurement": "Activity level (growth inhibition rate), Galium aparine", "setting": "[2]", "result": "5 (Level 5: the growth inhibition rate is greater than 85%)"}, {"measurement": "Activity level (growth inhibition rate), Monochoria Vaginalis", "setting": "[2]", "result": "5 (Level 5: the growth inhibition rate is greater than 85%)"}]}, {"compound": "C[C@@H](Oc1nc(F)c(Cl)c(N)c1Cl)C(=O)OCc1ccco1", "note": "[Compound 2-348]", "values": [{"measurement": "Echinochloa crusgalli, activity level (growth inhibition rate)", "setting": "Echinochloa crusgalli", "result": "5 (Level 5: the growth inhibition rate is greater than 85%)"}, {"measurement": "Activity level (growth inhibition rate), Echinochloa crusgalli", "setting": "Echinochloa crusgalli", "result": "5 (Level 5: the growth inhibition rate is greater than 85%)"}, {"measurement": "rice, activity level (growth inhibition rate)", "setting": "rice", "result": "0 (Level 0: the growth inhibition rate is less than 5%)"}, {"measurement": "Digitaria sanguinalis, activity level (growth inhibition rate)", "setting": "Digitaria sanguinalis", "result": "5 (Level 5: the growth inhibition rate is greater than 85%)"}, {"measurement": "Activity level (growth inhibition rate), Digitaria sanguinalis", "setting": "Digitaria sanguinalis", "result": "5 (Level 5: the growth inhibition rate is greater than 85%)"}, {"measurement": "Monochoria Vaginalis, activity level 0-5", "setting": "Monochoria vaginalis", "result": "5 (Level 5: the growth inhibition rate is greater than 85%)"}, {"measurement": "Semen Euphorbiae Lathyridis, activity level (growth inhibition rate)", "setting": "[1]", "result": "5 (Level 5: the growth inhibition rate is greater than 85%)"}, {"measurement": "rice, safety level 0-5", "setting": "rice (japonica rice)", "result": "0 (Level 0: the growth inhibition rate is less than 5%)"}, {"measurement": "Activity level (growth inhibition rate), Abutilon theophrasti Medic.", "setting": "[2]", "result": "5 (Level 5: the growth inhibition rate is greater than 85%)"}, {"measurement": "Activity level (growth inhibition rate), Galium aparine", "setting": "[2]", "result": "5 (Level 5: the growth inhibition rate is greater than 85%)"}, {"measurement": "Activity level (growth inhibition rate), Monochoria Vaginalis", "setting": "[2]", "result": "5 (Level 5: the growth inhibition rate is greater than 85%)"}]}]}
